pIC50, pKd: −log10 of the molar value.
How the values were obtained:
NCNga mice = details: picrylchloride-induced dermatitis; cited from earlier work
patients with OAB = details: cited from earlier work
[1] = Solubility test in Franz cell receptor solution; type: physicochemical
human NK-1 receptor = human NK-1 receptor (Homo sapiens, UniProt P25103); details: cited from earlier work
[2] = In vitro skin permeation, Franz diffusion cell; type: in vitro ADME; details: topical formulations B and C, LC-MS/MS, human skin, 37° C.
Protocol: In vitro skin permeation of serlopitant in topical formulations A-D was evaluated using a Franz diffusion cell. FIG. 2 illustrates a Franz diffusion cell. A Franz diffusion cell having a circular permeation area of 4.15 cm^2 and a receptor chamber volume of 19 mL was set up with a thermo-regulated outer water jacket to maintain the temperature at 37° C. The receptor chamber was filled with 19 mL 1×PBS (pH 7.5) containing 10% ethanol and 1% Tween® 80.
Human skin was pretreated to remove all subcutaneous fat and was cleaned with 70% ethanol before use. The skin was visually inspected to ensure that it was free of any surface irregularity or small holes and was equally divided into four pieces. The skin was then mounted onto the receptor chamber with the stratum corneum side facing up. About 100 mg of topical formulation A, B, C or D was applied to the skin (actual weight: A, 103.8 mg; B, 101.3 mg; C, 103.2 mg; and D, 103.8 mg), which was then covered with parafilm to avoid evaporation. […]
All samples were processed by solid-phase extraction (SPE) before LC-MS/MS analysis. […] Serlopitant concentrations in samples resulting from formulations A-D were determined by comparison to the standard. Serlopitant was not detected in samples resulting from topical formulations A and D, as expected. […] After an initial lag, serlopitant was detected by LC-MS/MS in the receptor chamber at 6 hours.

CYP-3A4 mRNA = details: three individual preparations of human hepatocytes; cited from earlier work
[3] = system: cloned human NK-2 and NK-3 receptors; details: CHO cells stably expressing the respective receptors; cited from earlier work
[4] = Solubility of Compound 1 in solvents; type: physicochemical
Description: S-BTBA ((S)-1-[3,5-bis(trifluoromethyl)] phenylethanol)) (12) is reacted with trichloroacetonitrile (Sigma-Aldrich) in the presence of base 1,8-diazabicycloundec-7-ene (DBU) to produce imidate (13). HBF4 is used to catalyze the reaction of (11) with (13) to yield ether (14). Treatment with allylamine and bis-propylsulfonate cyclizes (14) to allylamine-protected pyrrolidine (15). Removal of the allyl protecting group with thiosalicylic acid and 1,4-bis(diphenylphosphino)butane (dppb), followed by […] (Pd2(dba)3) and isolation with acetic acid gives crystalline (16). Finally, (16) is reacted with 1,3-cyclopentanedione (Sigma-Aldrich) in isopropyl alcohol to give Compound 1. Compound 1 is a white to off-white powder.

[5] = system: patients with Sézary syndrome; details: oral, 80 mg daily, three patients with Sézary syndrome; cited from earlier work
[6] = system: patients with chronic pruritus; design: patients with considerable reduction in itch intensity: unit not given here; details: 80 mg daily for 3 to 13 days, cited from earlier work
CYP3A4 = CYP3A4 (Homo sapiens, UniProt P08684); details: cited from earlier work
[7] = system: patients suffering from chronic pruritus; details: single topical dose, 5% in a lipophilic vehicle; cited from earlier work
CYP2C9 = CYP2C9 (Homo sapiens, UniProt P11712); details: cited from earlier work
[8] = itch; cited from earlier work
[9] = system: patients with liver and kidney disease; details: cited from earlier work

Chain of human NK-1 receptor (P25103 whole entry, the tested form may be a part): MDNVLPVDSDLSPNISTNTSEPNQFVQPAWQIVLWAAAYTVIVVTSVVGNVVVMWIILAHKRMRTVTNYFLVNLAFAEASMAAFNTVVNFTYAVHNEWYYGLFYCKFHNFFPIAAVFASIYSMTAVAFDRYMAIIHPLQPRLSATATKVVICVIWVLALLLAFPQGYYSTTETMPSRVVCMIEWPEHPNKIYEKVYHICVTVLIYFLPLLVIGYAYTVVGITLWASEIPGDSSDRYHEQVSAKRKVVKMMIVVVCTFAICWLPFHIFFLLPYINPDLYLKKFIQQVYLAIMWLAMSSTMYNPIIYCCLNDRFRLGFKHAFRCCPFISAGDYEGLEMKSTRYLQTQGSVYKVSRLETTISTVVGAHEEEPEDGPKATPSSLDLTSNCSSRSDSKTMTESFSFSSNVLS
Chain of CYP3A4 (P08684 whole entry): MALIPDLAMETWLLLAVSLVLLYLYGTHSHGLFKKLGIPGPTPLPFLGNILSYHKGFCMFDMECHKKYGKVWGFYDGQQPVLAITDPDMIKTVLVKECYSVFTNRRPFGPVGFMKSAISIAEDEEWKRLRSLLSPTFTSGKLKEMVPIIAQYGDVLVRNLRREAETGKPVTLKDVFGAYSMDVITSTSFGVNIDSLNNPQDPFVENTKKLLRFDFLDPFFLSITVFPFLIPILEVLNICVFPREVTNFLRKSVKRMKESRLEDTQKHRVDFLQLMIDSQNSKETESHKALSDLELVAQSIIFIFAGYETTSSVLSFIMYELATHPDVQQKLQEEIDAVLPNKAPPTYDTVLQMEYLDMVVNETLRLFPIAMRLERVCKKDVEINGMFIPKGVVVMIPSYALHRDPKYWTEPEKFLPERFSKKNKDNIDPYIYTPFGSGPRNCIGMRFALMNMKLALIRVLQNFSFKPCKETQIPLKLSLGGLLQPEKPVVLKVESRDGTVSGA
Chain of CYP2C9 (P11712 whole entry): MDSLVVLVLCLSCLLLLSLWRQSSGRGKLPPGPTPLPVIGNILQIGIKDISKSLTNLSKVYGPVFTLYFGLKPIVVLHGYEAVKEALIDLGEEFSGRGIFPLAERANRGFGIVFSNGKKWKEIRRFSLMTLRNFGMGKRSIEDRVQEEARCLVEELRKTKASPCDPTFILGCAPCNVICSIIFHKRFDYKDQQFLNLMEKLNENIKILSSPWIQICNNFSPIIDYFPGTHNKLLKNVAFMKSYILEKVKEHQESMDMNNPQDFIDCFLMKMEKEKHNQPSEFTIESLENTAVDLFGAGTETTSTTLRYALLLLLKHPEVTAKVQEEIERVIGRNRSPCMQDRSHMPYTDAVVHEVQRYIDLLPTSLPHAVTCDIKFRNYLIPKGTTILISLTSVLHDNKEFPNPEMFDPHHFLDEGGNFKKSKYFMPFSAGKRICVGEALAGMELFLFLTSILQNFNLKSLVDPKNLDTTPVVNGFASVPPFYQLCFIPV

In the case of `CN(CCc1cc(C(F)(F)F)cc(C(F)(F)F)c1)C(=O)[C@H](c1ccccc1)N1CCN(CC2CC2)CC1` [BIIF 1149 CL], the scratching behavior (NCNga mice) is given as “inhibited scratching behavior”.

In the case of `C[C@@H](O[C@H]1CC[C@@H]2CN(C3=CC(=O)CC3)C[C@H]2[C@@H]1c1ccc(F)cc1)c1cc(C(F)(F)F)cc(C(F)(F)F)c1` [Compound 1, 3-[(3aR,4R,5S,7aS)-5-[(1R)-1-[3,5-bis(trifluoromethyl)phenyl]ethoxy]-4-(4-fluorophenyl)-1,3,3a,4,5,6,7,7a-octahydroisoindol-2-yl]cyclopent-2-en-1-one], the “number of daily micturitions compared with placebo” value (patients with OAB; 0.25 and 4 mg daily) is given as “significantly reduced”, the “adverse experience of dry mouth” value (patients with OAB) is given as “not associated” and the “dose response relationship with micturition frequency” value (patients with OAB) is given as “did not show a dose response relationship”. The “drug-related serious adverse experiences” value (patients with OAB) was “no drug-related serious adverse experiences”, the “secondary efficacy end points: urinary urgency, urge incontinence and total incontinence” value (patients with OAB) was “did not significantly influence” and the tolerability (patients with OAB) was “generally well tolerated”. The “solubility in receptor solution” value ([1]; 0.5, 5 and 50 ug/mL in 1xPBS (pH 7.5) with 10% ethanol and 1% Tween 80, 1 hour at 37° C.) was “remained soluble”, the “solubility change if Tween 80 was not used” value ([1]; 1xPBS (pH 7.5), 37° C.) was “decreased significantly” and the “solubility change if ethanol was not used” value ([1]; 1xPBS (pH 7.5), 37° C.) was “decreased slightly”. The pIC50 (human NK-1 receptor; read-out: IC50, displacement of substance P binding) was 10.21, the pKd (human NK-1 receptor; read-out: Kd, binding to the human NK-1 receptor) was 10.34 and the “time at which serlopitant was detected in the receptor chamber after initial lag” value [2] was 6 h. For the same molecule, the “induction of CYP-3A4 mRNA” value (CYP-3A4 mRNA) was “did not significantly induce”, the “selectivity for NK-1 over NK-2 and NK-3 receptors” value [3] was > 39,000 fold and the solubility ([4]; acetonitrile) was “sparingly soluble”. For the same molecule, the solubility ([4]; ethanol) was “soluble”, the solubility ([4]; ethyl acetate) was “sparingly soluble” and the solubility ([4]; isopropyl acetate) was “slightly soluble”. For the same molecule, the solubility ([4]; isopropyl alcohol) was “sparingly soluble”, the solubility ([4]; methanol) was “freely soluble” and the solubility ([4]; water) was “insoluble”.

For `C[C@@H](O[C@H]1OCCN(Cc2n[nH]c(=O)[nH]2)[C@H]1c1ccc(F)cc1)c1cc(C(F)(F)F)cc(C(F)(F)F)c1` [aprepitant], the treatment of pruritus [5] is listed as “had utility in treating pruritus”, the “effect on chronic pruritus” value ([6]; atopic diathesis, prurigo nodularis) is listed as “significantly decreased chronic pruritus” and the “patients with considerable reduction in itch intensity” value ([6]; twenty patients) is listed as “Eighty”. The “inhibition and induction of CYP3A4” value (CYP3A4) was “moderate inhibitor as well as an inducer”, the “absorption into the skin” value [7] was “absorbed into the skin” and the “effect on patients' itch” value [7] was “not alleviated”. For the same molecule, the “inhibition and induction of CYP2C9” value (CYP2C9) was “moderate inhibitor as well as an inducer”.

In the case of `NCC1(CC(=O)O)CCCCC1` [gabapentin], the onset of action [8] is listed as 5-6 weeks.

In the case of `C=C1CC[C@@]2(O)[C@H]3Cc4ccc(O)c5c4[C@@]2(CCN3CC2CC2)[C@H]1O5` [nalmefene], the “effect on pruritus symptoms” value [9] is given as “decreased pruritus symptoms” and the side effects [9] is given as “significant central nervous and gastrointestinal side effects occurred”.

For `C=CCN1CC[C@]23c4c5ccc(O)c4O[C@H]2C(=O)CC[C@@]3(O)[C@H]1C5` [naloxone], the “effect on pruritus symptoms” value [9] is listed as “decreased pruritus symptoms” and the side effects [9] is listed as “significant central nervous and gastrointestinal side effects occurred”.

In the case of `O=C1CC[C@@]2(O)[C@H]3Cc4ccc(O)c5c4[C@@]2(CCN3CC2CC2)[C@H]1O5` [naltrexone], the “effect on pruritus symptoms” value [9] is listed as “decreased pruritus symptoms” and the side effects [9] is listed as “significant central nervous and gastrointestinal side effects occurred”.

For `Cc1ccc(O)c([C@H](CCN(C(C)C)C(C)C)c2ccccc2)c1` [tolterodine, reference compound], the “adverse experience of dry mouth” value (patients with OAB) is given as “common”, the “efficacy compared with placebo” value (patients with OAB) is given as “statistically significantly more effective” and the “efficacy compared with serlopitant at all efficacy end points” value (patients with OAB) is given as “numerically more effective”.

— patent publication US10617671B2, “Use of NK-1 receptor antagonist serlopitant in pruritus” (Menlo Therapeutics Inc., priority 2013, dated 2020)
